Laboratory results from patent US20250144051A1, “Colchicine for Treating Connective Tissue Disorders” (Khan Sciences, Inc., priority 2023, published 2025).

Key:
Assay type in all cases: cell-based, human
TGF-β1 = test: In vitro tendinopathy model, TGF-β1 in tenocyte supernatant (MSD multiplex)
Description: (§1) In Vitro Tendinopathy Model: The below experiment was conducted on an in vitro tendinopathy model. Cells derived from human tendons (tenocytes) can serve as an in vitro model of tendons. See Miller et al., “MicroRNA29a regulates IL-33-mediated tissue remodelling in tendon disease.” Nat Commun 6, 6774 (2015). Cultured tenocytes can be used to investigate the effects of pro-inflammatory cytokines upon the most basic elements of tendon structure. See Ellis et al., “Defining the profile: Characterizing cytokines in tendon injury to improve clinical therapy.” Journal of Immunology and Regenerative Medicine 16, 100059 (2022). When a tendon is injured, it triggers a local inflammatory response that involves immune cell infiltration and the expression of pro-inflammatory mediators. This inflammatory environment can modify tenocyte physiology, causing them to become activated and pro-inflammatory. Exposing the tenocytes to the pro-inflammatory cytokines TNF-α and IL-1β can mimic the effects of tendon injury. See Smith et al., “Tumour necrosis factor alpha, interleukin 1 beta and interferon gamma have detrimental effects on equine tenocytes that cannot be rescued by IL-1RA or mesenchymal stromal cell-derived factors.” Cell Tissue Res 391, 523-544 (2023).
(§2) Cell Culture System. Immortalized, healthy, commercially-sourced human tenocyte cells (donor, patellar tendon) were reconstituted, seeded in T-75 flasks coated with bovine collagen I, and were maintained in Tenocyte Growth Medium supplemented with Tenocyte Growth Supplement, FBS, and penicillin/streptomycin. Culture conditions were maintained at 37° C. in a humidified 5% CO2 atmosphere. Cells were seeded at a density of 100,000 cells/well in commercially-sourced 24-well plates that were pre-coated with rat tail tendon collagen I.
(§3) Treatment Protocol. This study was designed to follow the time-course of collagen production after cytokine exposure to mimic the effects of tendon injury. The time variable was cytokine exposure time (6 hours, 1 day, 3 days, and 5 days). Each of these cytokine exposure time periods was followed by a 24-hour drug treatment period. Inflammatory conditions were induced using a combination of IL-1β (1 nM; 17 ng/ml) and TNF-α (10 ng/ml). Two therapeutic interventions were evaluated. The treatment designated as “treatment A” was colchicine (2 nM). The treatment designated as “treatment B” was colchicine (2 nM) plus pyridoxine (100 μM).
(§4) Experimental Groups. The treatment groups were as follows: (1) exposed to inflammatory cytokines plus treatment A; (2) exposed to inflammatory cytokines plus treatment B; (3) exposed to inflammatory cytokines (negative control, no drug). Further reference control groups were as follows: (A) treatment A without inflammatory cytokine exposure (drug-only control); (B) treatment B without inflammatory cytokine exposure (drug-only control); (C) healthy control (no inflammatory cytokines, no drug treatment).
(§5) Sample Collection Times. Samples were collected at the following timepoints after initiation of cytokine exposure: • 6-hour samples: Collection at 30 hours (6 hr cytokine exposure+24 hr drug treatment) • 1-day samples: Collection at 48 hours (24 hr cytokine exposure+24 hr drug treatment) • 3-day samples: Collection at 96 hours (72 hr cytokine exposure+24 hr drug treatment) • 5-day samples: Collection at 144 hours (120 hr cytokine exposure+24 hr drug treatment, cell culture medium replenished on day-3)
(§6) Assays Used. Collagen I (human) content was measured using enzyme-linked immunosorbent assay (ELISA) in cell culture supernatants. TGF-β1 in cell culture supernatants were measured using the MSD multiplex platform. Other inflammatory cytokines in cell culture supernatants were measured using the MSD multiplex platform.

IFN-γ = test: In vitro tendinopathy model, IFN-γ in tenocyte supernatant (MSD multiplex); parameters: IFN-γ, % of negative control / reduction of IFN-γ levels compared to negative control: concentration or dose not given beside the values
Description: as §1, §2, §3, §4, §5, §6

IL-6 = test: In vitro tendinopathy model, IL-6 in tenocyte supernatant (MSD multiplex)
Description: as §1, §2, §3, §4, §5, §6

[1] = 6 hr cytokine exposure + 24 hr drug treatment
[2] = 1 day cytokine exposure + 24 hr drug treatment
[3] = 3 days cytokine exposure + 24 hr drug treatment
[4] = 5 days cytokine exposure + 24 hr drug treatment

COc1cc2c(c(OC)c1OC)-c1ccc(OC)c(=O)cc1[C@@H](NC(C)=O)CC2 [Treatment A, colchicine]
TGF-β1, % of negative control (TGF-β1; [1]): 127% | TGF-β1 level (TGF-β1; 6 hr cytokine exposure + 24 hr drug treatment, negative control 0.97 ng/ml): 1.23 ng/mL | TGF-β1, % of negative control (TGF-β1; [2]): 104% | TGF-β1 level (TGF-β1; 1 day cytokine exposure + 24 hr drug treatment, negative control 1.22 ng/ml): 1.28 ng/mL | TGF-β1, % of healthy baseline (TGF-β1; [3]): 112% | TGF-β1, % of negative control (TGF-β1; [3]): 114% | TGF-β1 level (TGF-β1; 3 days cytokine exposure + 24 hr drug treatment, negative control 1.70 ng/ml): 1.94 ng/mL | TGF-β1, % of negative control (TGF-β1; [4]): 108% | TGF-β1 level (TGF-β1; 5 days cytokine exposure + 24 hr drug treatment, negative control 1.22 ng/mL): 1.32 ng/mL | TGF-β1 level (TGF-β1; drug alone, without inflammatory cytokines, healthy control 1.73 ng/ml): 1.90 ng/mL | TGF-β1, % of healthy baseline (TGF-β1; drug-only control, without inflammatory cytokines): 110% | reduction of IFN-γ levels compared to negative control (IFN-γ; 6-hour timepoint): 28.4% | IFN-γ, % of healthy level (IFN-γ; [1]): 154.5% | IFN-γ, % of negative control (IFN-γ; [1]): 71.6% | IFN-γ level (IFN-γ; 6 hr cytokine exposure + 24 hr drug treatment, negative control 17.6 pg/ml): 12.6 pg/mL | IFN-γ, % of healthy level (IFN-γ; [2]): 186.9% | IFN-γ, % of negative control (IFN-γ; [2]): 98.0% | IFN-γ level (IFN-γ; 1 day cytokine exposure + 24 hr drug treatment, negative control 15.6 pg/ml): 15.3 pg/mL | IFN-γ, % of healthy level (IFN-γ; [3]): 112.1% | IFN-γ, % of negative control (IFN-γ; [3]): 72.4% | IFN-γ level (IFN-γ; 3 days cytokine exposure + 24 hr drug treatment, negative control 12.7 pg/mL): 9.2 pg/mL | IFN-γ, % of healthy level (IFN-γ; [4]): 160.7% | IFN-γ, % of negative control (IFN-γ; [4]): 80.7% | IFN-γ level (IFN-γ; 5 days cytokine exposure + 24 hr drug treatment, negative control 16.3 pg/mL): 13.1 pg/mL | IFN-γ level (IFN-γ; drug alone, without inflammatory cytokines, healthy control 8.2 pg/mL): 3.1 pg/mL | IL-6, % of healthy level (IL-6; [1]): 873.4% | IL-6, % of negative control (IL-6; [1]): 185.1% | IL-6 level (IL-6; 6 hr cytokine exposure + 24 hr drug treatment, negative control 1614.8 pg/mL): 2989.5 pg/mL | IL-6, % of healthy level (IL-6; [2]): 617.8% | IL-6, % of negative control (IL-6; [2]): 122.5% | IL-6 level (IL-6; 1 day cytokine exposure + 24 hr drug treatment, negative control 1726.6 pg/mL): 2114.9 pg/mL | IL-6, % of healthy level (IL-6; [3]): 397.3% | IL-6, % of negative control (IL-6; [3]): 127.5% | IL-6 level (IL-6; 3 days cytokine exposure + 24 hr drug treatment, negative control 1067.0 pg/mL): 1360.1 pg/mL | IL-6, % of healthy level (IL-6; [4]): 207.0% | IL-6, % of negative control (IL-6; [4]): 101.7% | IL-6 level (IL-6; 5 days cytokine exposure + 24 hr drug treatment, negative control 696.6 pg/mL): 708.5 pg/mL | IL-6 level (IL-6; drug alone, without inflammatory cytokines, healthy control 342.3 pg/mL): 73.7 pg/mL
